Test results as given in ChEMBL document CHEMBL2073833, “Biliary excretion of glycyrrhizin in rats: kinetic basis for multiplicity in bile canalicular transport of organic anions” (Pharm Res, 1996).

Tests used:
Conditions in all cases: in vivo
[1] = target: T1, ATP-binding cassette sub-family C member 2 (Rattus norvegicus, UniProt Q63120); assay: TP_TRANSPORTER: inhibition of GR biliary excretion (70.8->23.5 % of dose, DBSP: 3 uM/min/kg iv infusion, GR: 10 mg/kg iv) in EHBR rat; assay type: functional, organism-based, Bile; design: dose 10 mg/kg, route intravenous
[2] = target: T1, ATP-binding cassette sub-family C member 2; assay: TP_TRANSPORTER: inhibition of GR biliary excretion (70.8->23.5 % of dose, DBSP: 3 uM/min/kg iv infusion, GR: 10 mg/kg iv) in SD rat; assay type: functional, organism-based, Sprague-Dawley, Bile; design: dose 10 mg/kg, route intravenous
[3] = target: T1, ATP-binding cassette sub-family C member 2; assay: TP_TRANSPORTER: biliary excretion in EHBR rat; assay type: functional, organism-based, Bile
[4] = target: T1, ATP-binding cassette sub-family C member 2; assay: TP_TRANSPORTER: biliary excretion in SD rat; assay type: functional, organism-based, Sprague-Dawley, Bile

T1 sequence (Q63120 whole entry, the tested form may be a part): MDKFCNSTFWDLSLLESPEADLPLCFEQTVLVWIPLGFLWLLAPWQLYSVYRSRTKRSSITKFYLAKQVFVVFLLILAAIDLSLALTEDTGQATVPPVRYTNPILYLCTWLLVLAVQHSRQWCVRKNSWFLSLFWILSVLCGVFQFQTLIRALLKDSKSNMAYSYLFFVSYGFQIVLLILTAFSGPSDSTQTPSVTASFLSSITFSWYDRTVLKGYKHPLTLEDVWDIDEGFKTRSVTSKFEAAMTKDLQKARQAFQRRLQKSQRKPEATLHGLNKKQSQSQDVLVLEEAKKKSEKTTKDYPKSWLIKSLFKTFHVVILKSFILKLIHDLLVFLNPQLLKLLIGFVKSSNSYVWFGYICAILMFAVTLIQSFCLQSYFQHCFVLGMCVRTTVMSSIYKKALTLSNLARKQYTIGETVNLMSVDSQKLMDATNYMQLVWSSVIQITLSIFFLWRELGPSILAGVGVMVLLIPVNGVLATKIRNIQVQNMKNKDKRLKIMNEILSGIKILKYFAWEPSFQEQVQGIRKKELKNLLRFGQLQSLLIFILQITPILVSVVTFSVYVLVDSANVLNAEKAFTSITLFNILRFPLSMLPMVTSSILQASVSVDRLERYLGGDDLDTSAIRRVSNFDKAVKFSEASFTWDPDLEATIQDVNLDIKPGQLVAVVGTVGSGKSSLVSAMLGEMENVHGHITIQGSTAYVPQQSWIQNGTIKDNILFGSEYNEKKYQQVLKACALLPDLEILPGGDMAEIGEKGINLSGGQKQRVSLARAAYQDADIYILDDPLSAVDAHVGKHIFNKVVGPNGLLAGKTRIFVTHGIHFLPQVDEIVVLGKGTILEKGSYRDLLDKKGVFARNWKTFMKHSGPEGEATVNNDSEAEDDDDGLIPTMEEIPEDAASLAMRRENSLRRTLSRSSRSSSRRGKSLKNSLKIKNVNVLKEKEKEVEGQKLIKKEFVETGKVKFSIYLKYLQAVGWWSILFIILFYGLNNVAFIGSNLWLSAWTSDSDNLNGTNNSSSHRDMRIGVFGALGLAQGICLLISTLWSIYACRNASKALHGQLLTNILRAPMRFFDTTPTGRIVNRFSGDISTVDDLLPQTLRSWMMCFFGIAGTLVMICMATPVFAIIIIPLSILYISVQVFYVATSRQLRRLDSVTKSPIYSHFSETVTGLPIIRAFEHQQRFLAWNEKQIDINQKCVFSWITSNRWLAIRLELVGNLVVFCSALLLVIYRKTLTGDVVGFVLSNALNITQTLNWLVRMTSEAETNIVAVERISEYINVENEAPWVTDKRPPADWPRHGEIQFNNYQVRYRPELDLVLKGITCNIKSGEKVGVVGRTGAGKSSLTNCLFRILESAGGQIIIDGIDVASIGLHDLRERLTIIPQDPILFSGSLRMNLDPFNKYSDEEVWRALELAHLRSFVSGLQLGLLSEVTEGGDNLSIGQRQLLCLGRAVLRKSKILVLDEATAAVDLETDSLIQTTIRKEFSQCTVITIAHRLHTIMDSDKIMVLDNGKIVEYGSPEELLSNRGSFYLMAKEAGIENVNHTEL

Activity [1] | Activity [2] | Activity [3] | Activity [4] | Structure (SMILES)
inhibitor [+] | inhibitor [+] |  |  | O=C1OC(c2ccc(OS(=O)(=O)O)cc2)(c2ccc(OS(=O)(=O)O)cc2)c2c(Br)ccc(Br)c21 [DIBROMOSULFOPHTHALEIN]
 |  | substrate [+] | substrate [+] | CC1(C)[C@@H](O[C@H]2O[C@H](C(=O)O)[C@@H](O)[C@H](O)[C@H]2O[C@@H]2O[C@H](C(=O)O)[C@@H](O)[C@H](O)[C@H]2O)CC[C@]2(C)[C@H]3C(=O)C=C4[C@@H]5C[C@@](C)(C(=O)O)CC[C@]5(C)CC[C@@]4(C)[C@]3(C)CC[C@@H]12 [GLYCYRRHIZIN]
